Laboratory results taken from patent publication US20020137929A1, “1 - (3-heterocyclylphenyl) isothiourea, -isourea, -guanidine and -amidine herbicidal agents” (Intellectual Property Department, BASF Aktiengesellschaft, priority 1998, published 2002).

What was measured:
CYPIR (Rice Flatsedge) [1] = assay: Preemergence weed control under flooded paddy conditions; type: in vivo, Cyperus iria; conditions: rated 3-4 weeks after treatment
Summary of the method: (§1)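 Silt loam, seeds in top 0.5 cm; flood held 1.5-3 cm; test cpd as acetone/water 50/50 into flood water, ~0.0313-0.500 kg/ha a.i.; greenhouse 3-4 wk; visual 0-9 score vs control.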

SETVI (Foxtail, Green) [2] = assay: Postemergence herbicidal evaluation; type: in vivo, Setaria viridis; conditions: postemergence
Summary of the method: (§2)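 First, seedlings were raised for around two weeks. Next, test material in 50/50 acetone/water containing 0.5% TWEEN 20 was sprayed through a nozzle at 40 psi, equivalent to about 0.0156–0.500 kg/ha. Finally, after 4–5 weeks in the greenhouse, plants were rated 0–9.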

[3] = system: SAGPY (Arrowhead (Pygmaea)); assay: Postemergence weed control under flooded paddy conditions; type: in vivo, Sagittaria pygmaea; conditions: postemergence weeds, rated 3 to 4 weeks after treatment
Summary of the method: (§3)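 With weeds 3 to 5 cm tall and rice at the 1.5 to 2.5 leaf stage, containers were flooded and water held 1.5 to 3 cm above soil. Compounds in 50/50 v/v aqueous/acetone went into the flood water at about 0.0313 to 0.500 kg/ha a.i. Effects were visually rated 0–9 against controls after three to four weeks in the greenhouse.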

ZEAMX (Corn, Field) [4] = assay: Preemergence herbicidal evaluation; type: in vivo, Zea mays; conditions: preemergence, rated 4-5 weeks after treatment, 0-9 scale
Summary of the method: (§4)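 Seeds were mixed with potting soil and planted on about one inch of soil, then sprayed with test compound in aqueous acetone at about 0.0156 to 0.500 kg per hectare. Plants grew under standard greenhouse care and were visually rated 0-9 against untreated controls 4-5 weeks post-treatment.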

[5] = system: ECHORC (Watergrass (Calif.)); assay: Postemergence weed control under flooded paddy conditions; type: in vivo, Echinochloa oryzoides; conditions: postemergence weeds, rated 3 to 4 weeks after treatment
Summary of the method: as §3

CYPSE (Flatsedge) [6] = assay: Preemergence weed control under flooded paddy conditions; type: in vivo, Cyperus serotinus; conditions: rated 3-4 weeks after treatment
Summary of the method: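 Herbicidal effect is scored visually on a 0-9 scale against an untreated control, three to four weeks after compounds are pipetted into the flood water (1.5 to 3 cm deep) over seeds planted in silt loam at 0.5 cm depth. Rates: about 0.0313 to 0.500 kg/ha.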

[7] = system: ECHORC (Watergrass (Calif.)); assay: as above; type: in vivo, Echinochloa oryzoides; conditions: rated 3-4 weeks after treatment
Summary of the method: as §1

SETVI (Foxtail, Green) [8] = assay: Preemergence herbicidal evaluation; type: in vivo, Setaria viridis; conditions: preemergence, rated 4-5 weeks after treatment, 0-9 scale
Summary of the method: as §4

[9] = system: TRZAWR (Wheat, Winter, cv Riband); assay: Preemergence herbicidal evaluation; type: in vivo, Triticum aestivum; conditions: preemergence, rated 4-5 weeks after treatment, 0-9 scale
Summary of the method: as §4

CYPIR (Rice Flatsedge) [10] = assay: Postemergence weed control under flooded paddy conditions; type: in vivo, Cyperus iria; conditions: postemergence weeds, rated 3 to 4 weeks after treatment
Summary of the method: as §3

CYPSE (Flatsedge) [11] = assay: as above; type: in vivo, Cyperus serotinus; conditions: postemergence weeds, rated 3 to 4 weeks after treatment
Summary of the method: as §3

ORYSAT (Rice, Tebonnet) = assay: Postemergence herbicidal evaluation; type: in vivo, Oryza sativa, (L.) Tebonnet; conditions: postemergence
Summary of the method: as §2

ZEAMX (Corn, Field) [12] = assay: Postemergence herbicidal evaluation; type: in vivo, Zea mays; conditions: postemergence
Summary of the method: as §2

ECHCG (Barnyardgrass) = assay: Preemergence herbicidal evaluation; type: in vivo, Echinochloa crus-galli; conditions: preemergence, rated 4-5 weeks after treatment, 0-9 scale
Summary of the method: as §4

C#CCOC(=O)CC1SC(=Nc2cc(-n3c(=O)cc(C(F)(F)F)n(C)c3=O)c(F)cc2Cl)N(C)C1=O (centres unmarked) [Compound 90, 2-Propynyl 2-{{2-chloro-5-[3,6-dihydro-3-methyl-2,6-dioxo-4-(trifluoromethyl)-1(2H)-pyrimidinyl]-4-fluorophenyl}imino}-3-methyl-4-oxo-5-thiazolidineacetate]
6.0: Herbicidal rating SAGPY ([3]; Rate 0.0625 kg/ha)
2.0: TRZAWR rating ([9]; 0.1250 kg/ha)
9.0: SETVI herbicidal rating (SETVI (Foxtail, Green) [2]; rate 0.0158 kg/ha) | SETVI herbicidal rating (SETVI (Foxtail, Green) [2]; rate 0.0315 kg/ha) | SETVI herbicidal rating (SETVI (Foxtail, Green) [2]; rate 0.0630 kg/ha) | Herbicidal rating SAGPY ([3]; Rate 0.1250 kg/ha) | Herbicidal rating SAGPY ([3]; Rate 0.2500 kg/ha) | SETVI rating (SETVI (Foxtail, Green) [8]; 0.1250 kg/ha) | SETVI rating (SETVI (Foxtail, Green) [8]; 0.2500 kg/ha) | ZEAMX herbicidal rating (ZEAMX (Corn, Field) [12]; rate 0.0630 kg/ha)
3.0: CYPIR herbicidal effect rating (CYPIR (Rice Flatsedge) [1]; 0.2500 kg/ha) | Herbicidal rating ECHORC ([5]; Rate 0.2500 kg/ha) | CYPSE herbicidal effect rating (CYPSE (Flatsedge) [6]; 0.2500 kg/ha) | ECHORC herbicidal effect rating ([7]; 0.2500 kg/ha) | SETVI rating (SETVI (Foxtail, Green) [8]; 0.0625 kg/ha) | Herbicidal rating CYPIR (CYPIR (Rice Flatsedge) [10]; Rate 0.2500 kg/ha) | Herbicidal rating CYPSE (CYPSE (Flatsedge) [11]; Rate 0.2500 kg/ha) | ECHCG rating (ECHCG (Barnyardgrass); 0.2500 kg/ha)
6.5: ORYSAT herbicidal rating (ORYSAT (Rice, Tebonnet); rate 0.0315 kg/ha) | ORYSAT herbicidal rating (ORYSAT (Rice, Tebonnet); rate 0.0630 kg/ha)
4.0: Herbicidal rating SAGPY ([3]; Rate 0.0313 kg/ha) | ORYSAT herbicidal rating (ORYSAT (Rice, Tebonnet); rate 0.0158 kg/ha)
8.0: ZEAMX rating (ZEAMX (Corn, Field) [4]; 0.2500 kg/ha) | ZEAMX herbicidal rating (ZEAMX (Corn, Field) [12]; rate 0.0158 kg/ha)
0.0: CYPIR herbicidal effect rating (CYPIR (Rice Flatsedge) [1]; 0.0313 kg/ha) | CYPIR herbicidal effect rating (CYPIR (Rice Flatsedge) [1]; 0.0625 kg/ha) | ZEAMX rating (ZEAMX (Corn, Field) [4]; 0.0313 kg/ha) | ZEAMX rating (ZEAMX (Corn, Field) [4]; 0.0625 kg/ha) | Herbicidal rating ECHORC ([5]; Rate 0.0313 kg/ha) | Herbicidal rating ECHORC ([5]; Rate 0.0625 kg/ha) | Herbicidal rating ECHORC ([5]; Rate 0.1250 kg/ha) | CYPSE herbicidal effect rating (CYPSE (Flatsedge) [6]; 0.0313 kg/ha) | CYPSE herbicidal effect rating (CYPSE (Flatsedge) [6]; 0.0625 kg/ha) | CYPSE herbicidal effect rating (CYPSE (Flatsedge) [6]; 0.1250 kg/ha) | ECHORC herbicidal effect rating ([7]; 0.0313 kg/ha) | ECHORC herbicidal effect rating ([7]; 0.0625 kg/ha) | ECHORC herbicidal effect rating ([7]; 0.1250 kg/ha) | SETVI rating (SETVI (Foxtail, Green) [8]; 0.0313 kg/ha) | TRZAWR rating ([9]; 0.0313 kg/ha) | TRZAWR rating ([9]; 0.0625 kg/ha) | Herbicidal rating CYPIR (CYPIR (Rice Flatsedge) [10]; Rate 0.0313 kg/ha) | Herbicidal rating CYPIR (CYPIR (Rice Flatsedge) [10]; Rate 0.0625 kg/ha) | Herbicidal rating CYPSE (CYPSE (Flatsedge) [11]; Rate 0.0313 kg/ha) | Herbicidal rating CYPSE (CYPSE (Flatsedge) [11]; Rate 0.0625 kg/ha) | Herbicidal rating CYPSE (CYPSE (Flatsedge) [11]; Rate 0.1250 kg/ha) | ECHCG rating (ECHCG (Barnyardgrass); 0.0313 kg/ha) | ECHCG rating (ECHCG (Barnyardgrass); 0.0625 kg/ha) | ECHCG rating (ECHCG (Barnyardgrass); 0.1250 kg/ha)
8.5: ZEAMX herbicidal rating (ZEAMX (Corn, Field) [12]; rate 0.0315 kg/ha)
1.0: CYPIR herbicidal effect rating (CYPIR (Rice Flatsedge) [1]; 0.1250 kg/ha) | Herbicidal rating CYPIR (CYPIR (Rice Flatsedge) [10]; Rate 0.1250 kg/ha)
7.0: ZEAMX rating (ZEAMX (Corn, Field) [4]; 0.1250 kg/ha) | TRZAWR rating ([9]; 0.2500 kg/ha)
